# Laboratory results: patent US10584124B2, “Crystalline forms” (Array BioPharma Inc., priority 2017, dated 2020)
# Read-outs that look alike come from different tables or passages of the source.
# What was measured:
# [1] = Screen of conditions for sulfuric and phosphoric acid salts of Formula I (freebase solubility observations); format: physicochemical; settings: 25° C.
# Source text: The use of sulfuric acid in 4:1 DCM/EtOH provided a filterable solid after stirring overnight.
# [2] = Solubility of the free base of the compound of Formula I in solvents and mixed solvent systems; format: physicochemical; settings: for solubility: thermodynamic from solid
# Method: The solubility was also determined in mixed solvent systems such as DCM/EtOH, DMSO/EtOH, DMSO/water, THF/EtOH, and THF/water.
# The solubility studies were conducted as follows. […] The samples were then heated to 60° C. Should the solids dissolve on heating, more freebase was added in 3 to 5 mg portions.
smiles,measurement,setting,value
"COc1ccc(CN2CCN(c3ccc(-c4cc(-c5cnn(C)c5)cn5ncc(C#N)c45)cn3)CC2)cn1 [freebase of the compound of Formula I, 4-(6-(4-((6-methoxypyridin-3-yl)methyl)piperazin-1-yl)pyridin-3-yl)-6-(1-methyl-1H-pyrazol-4-yl)pyrazolo[1,5-a]pyridine-3-carbonitrile]",Solubility (in words),[1]; 4:1 DCM/EtOH (100 vol),dissolve
same,Solubility (in words),"[1]; THF, EtOH, and 1:1 DCM/EtOH (100 vol)",limited solubility
same,solubility,"[2]; 0.1M HCl, 25 °C, simulated gastric fluid, read-out: Solubility at 25° C.",1.5 mg/mL
same,solubility,"[2]; 10% THF in H2O, 25 °C, aqueous with cosolvent or surfactant or cyclodextrin, title: THF/H2O at room temperature, head: % THF in EtOH = 10, read-out: Solubility",0.15 mg/mL
same,solubility,"[2]; 20% THF in H2O, 25 °C, aqueous with cosolvent or surfactant or cyclodextrin, title: THF/H2O at room temperature, head: % THF in EtOH = 20, read-out: Solubility",0.13 mg/mL
same,solubility,"[2]; 25 °C, aqueous with cosolvent or surfactant or cyclodextrin, 20% DMSO in H2O, room temperature, read-out: Solubility",0.08 mg/mL
same,solubility,"[2]; 25 °C, aqueous with cosolvent or surfactant or cyclodextrin, 30% DMSO in H2O, room temperature, read-out: Solubility",0.09 mg/mL
same,solubility,"[2]; 25 °C, aqueous with cosolvent or surfactant or cyclodextrin, 40% DMSO in H2O, room temperature, read-out: Solubility",0.1 mg/mL
same,solubility,"[2]; 25 °C, aqueous with cosolvent or surfactant or cyclodextrin, 50% DMSO in H2O, room temperature, read-out: Solubility",0.09 mg/mL
same,solubility,"[2]; 25 °C, aqueous with cosolvent or surfactant or cyclodextrin, 60% DMSO in H2O, room temperature, read-out: Solubility",0.1 mg/mL
same,solubility,"[2]; 25 °C, aqueous with cosolvent or surfactant or cyclodextrin, 70% DMSO in H2O, room temperature, read-out: Solubility",0.15 mg/mL
same,solubility,"[2]; 25 °C, aqueous with cosolvent or surfactant or cyclodextrin, 80% DMSO in H2O, room temperature, read-out: Solubility",0.35 mg/mL
same,solubility,"[2]; 25 °C, aqueous with cosolvent or surfactant or cyclodextrin, 90% DMSO in H2O, room temperature, read-out: Solubility",1.52 mg/mL
same,solubility,"[2]; 25 °C, organic solvent or mixture, 20% DCM in EtOH, room temperature, read-out: Solubility",0.26 mg/mL
same,solubility,"[2]; 25 °C, organic solvent or mixture, 20% DMSO in EtOH, room temperature, read-out: Solubility",0.18 mg/mL
same,solubility,"[2]; 25 °C, organic solvent or mixture, 20% THF in EtOH, room temperature, read-out: Solubility",0.34 mg/mL
same,solubility,"[2]; 25 °C, organic solvent or mixture, 30% DCM in EtOH, room temperature, read-out: Solubility",0.87 mg/mL
same,solubility,"[2]; 25 °C, organic solvent or mixture, 30% DMSO in EtOH, room temperature, read-out: Solubility",0.39 mg/mL
same,solubility,"[2]; 25 °C, organic solvent or mixture, 30% THF in EtOH, room temperature, read-out: Solubility",0.55 mg/mL
same,solubility,"[2]; 25 °C, organic solvent or mixture, 40% DCM in EtOH, room temperature, read-out: Solubility",2.53 mg/mL
same,solubility,"[2]; 25 °C, organic solvent or mixture, 40% DMSO in EtOH, room temperature, read-out: Solubility",0.61 mg/mL
same,solubility,"[2]; 25 °C, organic solvent or mixture, 40% THF in EtOH, room temperature, read-out: Solubility",0.82 mg/mL
same,solubility,"[2]; 25 °C, organic solvent or mixture, 50% DCM in EtOH, room temperature, read-out: Solubility",7.42 mg/mL
same,solubility,"[2]; 25 °C, organic solvent or mixture, 50% DMSO in EtOH, room temperature, read-out: Solubility",1.14 mg/mL
same,solubility,"[2]; 25 °C, organic solvent or mixture, 50% THF in EtOH, room temperature, read-out: Solubility",1.38 mg/mL
same,solubility,"[2]; 25 °C, organic solvent or mixture, 60% DCM in EtOH, room temperature, read-out: Solubility",16.6 mg/mL
same,solubility,"[2]; 25 °C, organic solvent or mixture, 60% DMSO in EtOH, room temperature, read-out: Solubility",1.8 mg/mL
same,solubility,"[2]; 25 °C, organic solvent or mixture, 60% THF in EtOH, room temperature, read-out: Solubility",1.97 mg/mL
same,solubility,"[2]; 25 °C, organic solvent or mixture, 70% DCM in EtOH, room temperature, read-out: Solubility",22.7 mg/mL
same,solubility,"[2]; 25 °C, organic solvent or mixture, 70% DMSO in EtOH, room temperature, read-out: Solubility",2.57 mg/mL
same,solubility,"[2]; 25 °C, organic solvent or mixture, 70% THF in EtOH, room temperature, read-out: Solubility",2.51 mg/mL
same,solubility,"[2]; 25 °C, organic solvent or mixture, 80% DCM in EtOH, room temperature, read-out: Solubility",29 mg/mL
same,solubility,"[2]; 25 °C, organic solvent or mixture, 80% DMSO in EtOH, room temperature, read-out: Solubility",4.28 mg/mL
same,solubility,"[2]; 25 °C, organic solvent or mixture, 80% THF in EtOH, room temperature, read-out: Solubility",3.09 mg/mL
same,solubility,"[2]; 25 °C, organic solvent or mixture, 90% DCM in EtOH, room temperature, read-out: Solubility",34.2 mg/mL
same,solubility,"[2]; 25 °C, organic solvent or mixture, 90% DMSO in EtOH, room temperature, read-out: Solubility",4.44 mg/mL
same,solubility,"[2]; 25 °C, organic solvent or mixture, 90% THF in EtOH, room temperature, read-out: Solubility",3.18 mg/mL
same,solubility,"[2]; 25 °C, organic solvent or mixture, 100% DMSO in EtOH, room temperature, read-out: Solubility",6.96 mg/mL
same,solubility,"[2]; 30% THF in H2O, 25 °C, aqueous with cosolvent or surfactant or cyclodextrin, title: THF/H2O at room temperature, head: % THF in EtOH = 30, read-out: Solubility",0.35 mg/mL
same,solubility,"[2]; 40% THF in H2O, 25 °C, aqueous with cosolvent or surfactant or cyclodextrin, title: THF/H2O at room temperature, head: % THF in EtOH = 40, read-out: Solubility",1.36 mg/mL
same,solubility,"[2]; 50% THF in H2O, 25 °C, aqueous with cosolvent or surfactant or cyclodextrin, title: THF/H2O at room temperature, head: % THF in EtOH = 50, read-out: Solubility",2.5 mg/mL
same,solubility,"[2]; 60% THF in H2O, 25 °C, aqueous with cosolvent or surfactant or cyclodextrin, title: THF/H2O at room temperature, head: % THF in EtOH = 60, read-out: Solubility",3.76 mg/mL
same,solubility,"[2]; 70% THF in H2O, 25 °C, aqueous with cosolvent or surfactant or cyclodextrin, title: THF/H2O at room temperature, head: % THF in EtOH = 70, read-out: Solubility",6.17 mg/mL
same,solubility,"[2]; 80% THF in H2O, 25 °C, aqueous with cosolvent or surfactant or cyclodextrin, title: THF/H2O at room temperature, head: % THF in EtOH = 80, read-out: Solubility",6.65 mg/mL
same,solubility,"[2]; 90% THF in H2O, 25 °C, aqueous with cosolvent or surfactant or cyclodextrin, title: THF/H2O at room temperature, head: % THF in EtOH = 90, read-out: Solubility",6.56 mg/mL
same,solubility,"[2]; 100% DMSO (DMSO/H2O series), 25 °C, organic solvent or mixture, 100% DMSO in H2O, room temperature, read-out: Solubility",6.96 mg/mL
same,solubility,"[2]; 100% THF (THF/EtOH series), 25 °C, organic solvent or mixture, 100% THF in EtOH, room temperature, read-out: Solubility",2.59 mg/mL
same,solubility,"[2]; 100% THF (THF/H2O series), 25 °C, organic solvent or mixture, title: THF/H2O at room temperature, head: % THF in EtOH = 100, read-out: Solubility",2.59 mg/mL
same,Solids dissolve at 60° C.?,[2]; ACN,No
same,solubility,"[2]; ACN, 25 °C, organic solvent or mixture, read-out: Solubility at 25° C.",0.33 mg/mL
same,solubility,"[2]; DCE, 25 °C, organic solvent or mixture, read-out: Solubility at 25° C.",4.6 mg/mL
same,Solids dissolve at 60° C.?,[2]; EtOAc,No
same,solubility,"[2]; EtOAc, 25 °C, organic solvent or mixture, read-out: Solubility at 25° C.",0.36 mg/mL
same,Solids dissolve at 60° C.?,[2]; EtOH,No
same,solubility,"[2]; EtOH, 25 °C, organic solvent or mixture, read-out: Solubility at 25° C.",0.04 mg/mL
same,Solids dissolve at 60° C.?,[2]; IPA,No
same,Solids dissolve at 60° C.?,[2]; MEK,No
same,solubility,"[2]; MEK, 25 °C, organic solvent or mixture, read-out: Solubility at 25° C.",0.69 mg/mL
same,Solids dissolve at 60° C.?,[2]; MeOH,No
same,solubility,"[2]; MeOH, 25 °C, organic solvent or mixture, read-out: Solubility at 25° C.",0.07 mg/mL
same,Solids dissolve at 60° C.?,[2]; THF,Yes
same,freebase dissolved in THF at 60° C.,"[2]; THF (1 mL), 60° C., solution turned milky at 13 mg",10 to 13 mg
same,Solids dissolve at 60° C.?,[2]; acetone,No
same,solubility,"[2]; acetone, 25 °C, organic solvent or mixture, read-out: Solubility at 25° C.",0.44 mg/mL
same,solubility,"[2]; aqueous with cosolvent or surfactant or cyclodextrin, 10% DMSO in H2O, room temperature, read-out: Solubility",0.09 mg/mL
same,Solids dissolve at 60° C.?,[2]; iPAc,No
same,solubility,"[2]; iPAc, 25 °C, organic solvent or mixture, read-out: Solubility at 25° C.",0.25 mg/mL
same,solubility,"[2]; organic solvent or mixture, 0% DCM in EtOH, room temperature, read-out: Solubility",0.05 mg/mL
same,solubility,"[2]; organic solvent or mixture, 0% DMSO in EtOH, room temperature, read-out: Solubility",0.05 mg/mL
same,solubility,"[2]; organic solvent or mixture, 10% DCM in EtOH, room temperature, read-out: Solubility",0.06 mg/mL
same,solubility,"[2]; organic solvent or mixture, 10% DMSO in EtOH, room temperature, read-out: Solubility",0.09 mg/mL
same,solubility,"[2]; organic solvent or mixture, 10% THF in EtOH, room temperature, read-out: Solubility",0.29 mg/mL
same,solubility,"[2]; organic solvent or mixture, 100% DCM in EtOH, room temperature, read-out: Solubility",17.3 mg/mL
same,solubility,"[2]; organic solvent or mixture, DMA, 60° C., read-out: Solubility at 60° C.",> 40 mg/mL
same,solubility,"[2]; organic solvent or mixture, THF, 60° C., read-out: Solubility at 60° C.",10.2 to 13 mg/mL
same,Solids dissolve at 60° C.?,[2]; toluene,No
same,solubility,"[2]; toluene, 25 °C, organic solvent or mixture, read-out: Solubility at 25° C.",0.35 mg/mL
same,solubility,"[2]; water, 25 °C, water, read-out: Solubility at 25° C.",0.07 mg/mL
